Values quoted from earlier work, collected in US6608222B2, “Bioactive conjugated linoleic acid glycerides and method of use” (Alpha Food Ingredients, Inc., priority 2000, dated 2003).

Tested on: hamsters
Details: feeding studies with hamsters; compared with a composite group of CLA-FFA isomers

## CCCCCC/C=C/C=C\CCCCCCCC(=O)O [purified c-9, t-11 CLA-FFA, cis-9, trans-11-octadecadienoic acid]
  biological activity: not so biologically active as a composite group of CLA-FFA isomers
